# Assay results reported in patent publication US9707126B2, “Systems and methods for corneal cross-linking with pulsed light” (Avedro, Inc., priority 2009, dated 2017).
# Entries after “also recorded” stand apart in the source; their conditions may differ.
# Assays:
# [1] = Absorbance of Riboflavin before and after UVA irradiation (FIG. 3); format: physicochemical; conditions: 0.2 mm light path
# Protocol: Referring now to FIG. 3, a graph illustrating absorbance for 0.2 mm light path of an initial sample of Riboflavin versus absorbance for 0.2 mm light path of reduced Riboflavin RfH2 after being irradiated for 3 minutes at an irradiance of 30 mW/cm^2. At a wavelength of 445 nm, the absorbance of the initial sample is about 0.543, while the absorbance of the irradiated sample is about 0.340.
# [2] = test system: porcine corneal flaps; experiment: Fluorescence of papain-digested corneal flaps treated with RFH2 solutions (Example 1)
# Protocol: RFH2 was prepared by irradiation of Riboflavin solutions (with and without EDTA, 1% EDTA, 0.1% Riboflavin) and saturated with argon (to displace oxygen) in a shallow sealed quartz cuvette. Then, in the absence of additional UV light, porcine corneal flaps were immediately placed in those solutions. After 1-2 min this procedure was repeated with a fresh solution containing RFH2 several times. Corneal flaps then were washed with distilled water, digested with papain buffer, and their fluorescence was measured.
# [3] = test system: porcine cornea; experiment: Fluorescence of digested 200 μm corneal flaps, continuous wave versus pulsed illumination (Example 4); conditions: for fluorescence at 455 nm: 0.1% Riboflavin, 200 μm flap
# Protocol: In another corroborating experiment porcine whole globes (SiouxPreme Packing Co., Sioux City, Iowa; shipped in saline solution packed in ice) were warmed to room temperature (25 C). The corneas were then de-epithelialized with a dulled scalpel blade and 0.1, Riboflavin solution in 0.9% saline was applied to the top of each cornea during 20 minutes before cross-linking in an incubator. Corneas were pan-corneally irradiated with a top hat beam (3% root mean square) for a determined amount of time with 365-nm light source (UV LED NCSU033B[T]; Nichia Co., Tokushima, Japan) at the chosen irradiance of 30 mW/cm^2 with either continuous wave illumination or pulsed illumination 3 seconds on/3 Seconds off. Corneal flaps (200 μm thick) were excised from the eyes with aid of Intralase femtosecond laser (Abbott Medical Optics, Santa Ana, Calif.). The average thickness of the corneal flaps was calculated as a difference between the measurements before and after the excision from the eyes with an ultrasonic Pachymeter (DGH Technology, Exton, Pa.).
# The flaps were washed with distilled water until Riboflavin in the washing waters was not detectable by absorbance measurement at 455 nm (Thermo Scientific Evolution 300/600 UV-Vis Spectrophotometer, Thermo Fisher Scientific, Waltham, Mass.). […] Papain digests were centrifuged for 30 seconds at 2200×G (Mini centrifuge 05-090-100, Fisher Scientific), diluted 3 times with 1×PBS solution and fluorescence of the solutions was measured with excitation of λex=360 nm in a QM-40 Spectrofluorometer (Photon Technology Int., London, Ontario, Canada).
# The fluorescence of the papain buffer was taken into account by measuring fluorescence in the absence of tissue and subtracting this value from the fluorescence of the samples. The results seen below corroborate that the amount of fluorescence seen which is directly related to the amount of cross-linking is greater for the pulsed vs. continuous wave illumination in nearly the same proportion as the biomechanical measurements taken of the same flaps.
# [4] = test system: porcine cornea; experiment: Force versus displacement of cross-linked corneal flaps, biaxial materials tester (Example 3)
# Protocol: Upon arrival, porcine eyes have excess muscle tissue that was removed and placed in saline in the incubator (set to 37° C.) for 30 minutes. […] Eyes were removed from solution and physiological IOP was applied. Eyes were then placed under a UVA source and shutter system and irradiated according to the indicated protocol as shown in FIGS. 5A-5C. Riboflavin drops were applied every 1.5 minutes during UVA application. After being irradiated, the corneal thickness was measured with a pachymeter. The sample was then placed under the femto second laser and a ˜200 μm flap was cut. The flap was positioned in a biaxial materials tester (CS-BIO TESTER 5000, CellScale, Waterloo, ON Canada) and stretched until failure. The sample was then rinsed with distilled water and frozen for future papain digestion and fluorescence analysis.
# [5] = test system: porcine cornea; experiment: Cross-linking measured by fluorescence of digested corneal flaps at 450 nm (Example 5); conditions: 0.1% Riboflavin, humid oxygenated environment with pulsed UV light 30 mW/cm^2, 1.5 seconds on/3 seconds off, 9 minutes
# Protocol: Pig eyes from an abattoir (SiouxPreme, Sioux City, Iowa) were rinsed in saline. Eyes were cleaned and the epithelium was removed. Eyes were placed on a stand in the middle of a large beaker filled part way with water with a tube bubbling compressed oxygen into the water. The oxygen was turned on at certain times during the experiment to create a humid oxygenated environment for the eye. Eyes were soaked for 20 minutes with 0.1% Riboflavin, dH2O solution in an incubator set at 37° C. by using a rubber ring to hold the solution on top. Corneas were pan-corneally irradiated with a top hat beam (3% root mean square) for a determined amount of time and irradiance (3 minutes CW at 30 mW/cm^2 with one drop of solution added every 30 seconds, or 30 minutes CW at 3 mW/cm^2 with one drop of solution added every minute, or 9 minutes for pulsed light—1.5 seconds on/3 seconds off—using a shutter system (Lambda SC Smart Shutter, Sutter Instrument, Novato, Calif.) at 30 mW/cm^2 with one drop of solution added every minute) with a 365-nm light source (UV LED NCSU033B[T]; Nichia Co., Tokushima, Japan). The irradiance was measured with a power sensor (model PD-300-UV; Ophir, Inc., Jerusalem, Israel) at the corneal surface. […]
# FIG. 7A illustrates a graph of the amount of cross-linking measured by fluorescence of the digested corneal flaps at 450 nm. […]
# [6] = test system: porcine cornea; experiment: Collagen linked fluorescence in cross-linked corneal flaps at depths of 100 μm and 200 μm (Example 2)
# Protocol: Porcine whole globes (SiouxPreme Packing Co., Sioux City, Iowa; shipped in saline solution packed in ice) were warmed to room temperature (25° C.). The corneas were then de-epithelialized with a dulled scalpel blade and 0.1, 0.25, or 0.5% riboflavin solution in 0.9% saline was applied to the top of each cornea during 20 minutes before cross-linking Corneas were pan-corneally irradiated with a top hat beam (3% root mean square) for a determined amount of time with 365-nm light source (UV LED NCSU033B[T]; Nichia Co., Tokushima, Japan) at the chosen irradiance (3 or 30 mW/cm^2) which was measured with a power sensor (model PD-300-UV; Ophir, Inc., Jerusalem, Israel) at the corneal surface.
# Corneal flaps (each 100 μm thick, one after another) were excised from the eyes with aid of Intralase femtosecond laser (Abbott Medical Optics, Santa Ana, Calif.). The average thickness of the corneal flaps was calculated as a difference between the measurements before and after the excision from the eyes with an ultrasonic Pachymeter (DGH Technology, Exton, Pa.). The flaps were washed with distilled water until Riboflavin in the washing waters was not detectable by absorbance measurement at 455 nm (Thermo Scientific Evolution 300/600 UV-Vis Spectrophotometer, Thermo Fisher Scientific, Waltham, Mass.). […]
SMILES,absorbance at 445 nm ([1]; after irradiation for 3 minutes at 30 mW/cm^2),"fluorescence of corneal samples ([2]; Riboflavin solution irradiated with a reducing agent, EDTA (1% EDTA, 0.1% Riboflavin))","fluorescence of corneal samples versus samples washed with unexposed Riboflavin ([2]; preliminary UVA-exposed Riboflavin solutions, no further UV light)",fluorescence at 455 nm ([3]; 30 mW/cm^2 continuous illumination),fluorescence at 455 nm ([3]; 30 mW/cm^2 pulsed light 3 seconds on/3 seconds off),"fluorescence at 455 nm, continuous less than pulsed ([3]; 30 mW/cm^2 continuous versus pulsed 3 seconds on/3 seconds off)","biomechanical stiffness (FIG. 5C) ([4]; 0.1% Riboflavin, 30 mW/cm^2 pulsed 3 seconds on/4.5 seconds off and 3 seconds on/3 seconds off)","biomechanical stiffness (FIG. 5C) ([4]; 0.25% Riboflavin, 3 mW/cm^2 continuous wave)","biomechanical stiffness (FIG. 7B) ([4]; 3 mW/cm^2 and 30 mW/cm^2 continuous wave illumination, versus pulsed with oxygen)","biomechanical stiffness (FIG. 5C) ([4]; 30 mW/cm^2 pulsed, 3 seconds on, 1.5, 0.75 and 0.25 seconds off (samples 5, 6, 7))","biomechanical stiffness (FIG. 5C) ([4]; sample 1: 0.1% Riboflavin, 3 mW/cm^2 continuous wave)","biomechanical stiffness (FIG. 5B) ([4]; sample 2: 0.1% Riboflavin, 30 mW/cm^2 pulsed, 4.5 second exposure cycles, 3 seconds off)","biomechanical stiffness (FIG. 5A) ([4]; sample 2: 0.25% Riboflavin, 3 mW/cm^2 continuous wave vs. sample 3 at 30 mW/cm^2, 5.4 J/cm^2)","biomechanical stiffness (FIG. 7B) ([4]; sample 3: 30 mW/cm^2 pulsed light with oxygen, 3 seconds on/3 seconds off)","biomechanical stiffness (FIG. 5A) ([4]; sample 5: 30 mW/cm^2 continuous wave, total 35.1 J/cm^2 dose)","biomechanical stiffness (FIG. 5A) ([4]; sample 8: 0.1% Riboflavin, 30 mW/cm^2 pulsed 3 seconds on/3 seconds off)",absorbance at 445 nm ([1]; initial sample),amount of cross-linking by fluorescence of digested flaps at 450 nm (FIG. 7A) [5],"corneal fluorescence at first 100 μm versus next 100 μm ([6]; 0.1, 0.25 or 0.5% Riboflavin, 3 or 30 mW/cm^2, dose 5.4 J/cm^2)","corneal fluorescence relative to non-cross-linked samples ([6]; first 100 μm, 0.1% Riboflavin solution, 3 mW/cm^2, dose 5.4 J/cm^2)"
"Cc1cc2c(cc1C)N(C[C@H](O)[C@H](O)[C@H](O)CO)c1[nH]c(=O)[nH]c(=O)c1N2 [RfH2, Leuco-Deuteroflavin]",about 0.340,highest,higher,,,,,,,,,,,,,,,,,
Cc1cc2nc3c(=O)[nH]c(=O)nc-3n(C[C@H](O)[C@H](O)[C@H](O)CO)c2cc1C [Riboflavin],,,,about 12000 counts/s,"about 20,000 counts/s",about 40%,slightly lower biomechanical stiffness,lowest biomechanical stiffness out of samples 1 and 3-7,lower biomechanical stiffness,in descending order,highest biomechanical stiffness,slightly lower biomechanical stiffness than samples 3 or 1,dissimilar biomechanical stiffness,highest biomechanical stiffness,"higher than that for samples 6, 7, 3, 4, and 1; also recorded: lower than that for sample 2",higher than both the samples 6 and 7,about 0.543,greatly increases the amount of cross-linking,greater at first 100 μm than at the next 100 μm,highest corneal fluorescence
